Entries after “also recorded” stand apart in the source; their conditions may differ.
Key:
V2R knock-out NDI mice = assay: V2R knock-out mouse genetic model of NDI, 24-hour urine osmolality; type: in vivo
Experimental: (§1) NDI-5033 was tested to determine an initial time course and sustainability of the anti-diuretic response. Rats were given tolvaptan to initiate NDI. They were then fed 100 mg/kg/day with NDI-5033 for 3 days (FIG. 2A). […] To ensure that the observed efficacy is not compromised by potential binding of NDI-5033 to V2R, NDI-5033 was given to mice in which the V2R was genetically knocked out yielding a genetic model of NDI (FIG. 2B). Control mice received no drug. NDI-5033 was given by injection to the mice and 24-hour urine collected and assessed for urine osmolality. NDI-5033 produced a 50% improvement in urine concentration.
(§2) Tolvaptan induced NDI rats were prepared and fed with doses of NDI-5033 from 0 to 100 mg/kg/day in a series of experiments. […] To confirm the effectiveness of the 25 mg/kg/day dose, NDI-5033 was given to V2R knock-out NDI mice and 24-hour urines were assessed for urine osmolality (FIG. 3B). The osmolality was increased in NDI mice after treatment with 25 mg/kg/day of NDI-5033.

[1] = Hypoglycemia evaluation on chronic dosing in exercised tolvaptan-treated NDI rats (blood glucose); type: in vivo, rat; conditions: 25 mg/kg/day, daily for 5 days
Experimental: (§3) An experiment was designed to approximate hypoglycemia in the tolvaptan-treated rat NDI model to look for hypoglycemia. A timeline for the experiment is illustrated in FIG. 4A. The rats were given tolvaptan beginning Day negative 3. On Day zero half of the rats started to receive 25 mg/kg/day of NDI-5033. After observing an improvement in the urine concentration, the animals were exercised daily for 5 days. Food was removed from the animals and NDI-5033 was given, then 4 hours later rats were subjected to 30 minutes of treadmill running. Blood glucose measurements were taken before and after the bout of exercise. Food was restored. The process was repeated daily for 5 days. The average urine osmolality and urine volumes in the NDI rats not receiving NDI-5033 (control) or receiving 25 mg/kg/day NDI-5033 is shown in FIG. 4B. Urine osmolality was increased (p<0.05) and urine volume decreased (p<0.07) upon drug treatment. […] For each day, patterned bars are from rats not receiving NDI-5033. The leftmost bar (diagonal) is before and to the right is after exercise. The next two bars show blood glucose values for rats receiving NDI-5033. Solid black is before and solid white is after exercise.

[2] = system: Tolvaptan induced NDI rats; assay: Tolvaptan-induced NDI rat model, urine concentration; type: in vivo
Experimental: Rats were given tolvaptan to induce NDI. Tolvaptan binds to and blocks the vasopressin type 2 receptor (V2R) and renders the animals insensitive to vasopressin-induced antidiuresis. The efficacy of three compounds of Formula I were evaluated. Each rat was gavage fed with 10 mg/kg/day of tolvaptan in the carrier solution (1% hydroxypropylmethyl cellulose in water) for 3 days to prepare the NDI model. The drugs were added to the gavage feeding solution and delivered daily for 4 days (NDI-5001, 200 mg/kg/day; NDI-5033 or NDI-5037, 50 mg/kg/day). Control rats were sham gavage fed.
as §1, §2, §3

[3] = food removed, 30 minutes treadmill 4 hours after dose
[4] = 100 mg/kg/day for 3 days, tolvaptan NDI rats

SMILES	urine osmolality (in words) (V2R knock-out NDI mice; 25 mg/kg/day, 24-hour urines, FIG. 3B)	improvement in urine concentration (V2R knock-out NDI mice; given by injection, 24-hour urine, versus control mice receiving no drug) [%]	hypoglycemia ([1]; exercised NDI rats)	blood glucose before versus after exercise [1, 3]	blood glucose relative to normal range for rats [1, 3]	average urine osmolality (in words) ([2]; 25 mg/kg/day versus control NDI rats, exercise study, p<0.05, FIG. 4B)	average urine volume (in words) ([2]; 25 mg/kg/day versus control NDI rats, exercise study, p<0.07, FIG. 4B)	duration for which anti-diuretic response is sustained [2, 4] [days]	time to anti-diuretic effect after initial treatment [2, 4] [h]	urine concentrating ability (urine osmolality) as percent of untreated, fully concentrating rats (basal, set to 100%) ([2]; NDI-5033 50 mg/kg/day by gavage daily for 4 days, after tolvaptan 10 mg/kg/day for 3 days)	dose showing statistically significant improvements in urine concentrations ([2]; dose response 0 to 100 mg/kg/day, FIG. 3A) [mg/kg/day]	urine osmolality (in words) ([2]; dosed with NDI inducing agent tolvaptan, FIG. 2A, 100 mg/kg/day for 3 days)	efficacy / urine concentrating ability (in words) ([2]; gavage daily for 4 days, NDI-5001 200 mg/kg/day, NDI-5033 or NDI-5037 50 mg/kg/day, tolvaptan NDI rats)	urine osmolality as percent of the normal animal ([2]; tolvaptan 10 mg/kg/day by gavage for 3 days, NDI induction)
NC(=O)C1(CCCCCCCCCCCCC2(C(N)=O)CC2)CC1 [NDI-5033, 1,1′-(dodecane-1,12-diyl)bis(cyclopropane-1-carboxamide)]	increased	50	no evidence of hypoglycemia; also recorded: do not experience hypoglycemia	no statistical difference	within the normal range	increased	decreased	3	≤ 24	75 % of normal	≥ 10	increases urine osmolality	improve urine concentrating ability	
Cc1ccccc1C(=O)Nc1ccc(C(=O)N2CCCC(O)c3cc(Cl)ccc32)c(C)c1 (centres unmarked) [tolvaptan, reference compound]														10 % of the normal animal

Reference: patent US12433858B2, “Substituted cycloalkanes for managing nephrogenic diabetes insipidus” (NephroDI Therapeutics, Inc., priority 2017, dated 2025)
